This note sets out measurements from the METLIN SMRT retention time set (Domingo-Almenara et al. 2019).

The data set is described as follows: gradient 5% acetonitrile 3 min, to 50% in 2 min, to 85% in 15 min, held 3 min, 100 µL/min. The conditions noted are these: column: Zorbax Extend-C18 2.1 x 50 mm; eluents: water / acetonitrile, 0.1% formic acid. The method in brief:
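Pure standards were analyzed in mixtures of ~100 molecules using HPLC coupled to a quadrupole time-of-flight mass spectrometer, in both positive and negative ionization mode. Separation used a Zorbax Extend-C18 column (2.1 × 50 mm, 1.8 μm) at 100 μL/min, with water and acetonitrile each containing 0.1% formic acid. Dead and dwell volumes were 40 μL and 900 μL, and data were collected over 3 months. Retention time was read from computationally picked adduct peaks, each inspected manually.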
As to `COCc1c(C(=O)O)nnn1-c1ccccc1F`, the RP-LC retention time was determined as 670 s.

In the case of `Cc1ccccc1-c1noc(N2CCC(C(=O)NCc3ccc4c(c3)OCO4)CC2)n1`, the RP-LC retention time is 942 s.

In the case of `Cc1noc(-c2nc(-c3ccccc3F)no2)n1`, the RP-LC retention time is 990 s.

For the molecule `Fc1ccccc1CNc1nnc(-c2nc(C3CC3)no2)c2ccccc12`, the RP-LC retention time was determined as 952 s.

With `CCCCN(CCCC)c1nc(-c2ccncc2)nc2ccccc12`, the RP-LC retention time is 992 s.

`O=C1C2CCCN2C(=O)c2ccccc2N1CCc1ccccc1` (stereo unspecified) registered an RP-LC retention time of 757 s.

The molecule `O=C(CCCn1c(=O)c2cccn2c2ccc(F)cc21)NCCCN1CCCCCC1` gave an RP-LC retention time of 645 s.

Consider `COc1ccc(OC)c(S(=O)(=O)N2CCc3nn(CC4CC4)c(=O)n3CC2)c1`, for which the RP-LC retention time came out at 598 s.

For the molecule `Cc1cnc(C(=O)N2CCCn3ccnc3C2C2CCCC2)cn1` (stereo unspecified), the RP-LC retention time was 582 s.

`CC(N)C(=O)OC(C)(C)Cc1ccc(Cl)cc1` (stereo unspecified) came in with an RP-LC retention time of 757 s.

The molecule `CCCNc1cc(C)nc2nc(-c3ccc(C(C)(C)C)cc3)nn12` came in with an RP-LC retention time of 1000 s.

Take `Cc1cccc(N2CCN(S(=O)(=O)c3ccc(-c4c(C)noc4C)cc3)CC2)c1C`: the RP-LC retention time is 1230 s.

`Cc1ccc(N2CCC(NC(=O)NCCc3ccccc3)C2=O)cc1C` (stereo unspecified) displayed an RP-LC retention time of 790 s.

The molecule `O=C(Nc1ccc2c(c1)OCCO2)c1cccc(-c2cnc(N3CCCC3)nc2)c1` returned an RP-LC retention time of 845 s.

Molecule `CC1Oc2ccccc2OC1C(=O)NCCn1nc(-c2ccco2)ccc1=O` (stereo unspecified) gave an RP-LC retention time of 722 s.

Regarding `CCc1oc2cc(S(=O)(=O)Nc3ccc(S(=O)(=O)Nc4nccs4)cc3)ccc2c1C(=O)c1cc(Br)c(O)c(Br)c1`, the RP-LC retention time came out at 895 s.

The molecule `CC(C)N1C(=O)Cc2ccccc2C1C(=O)NCc1ccc(F)cc1` (stereo unspecified) registered an RP-LC retention time of 796 s.

With `CC(C)n1cnc2cc(CNC(=O)Cc3ccc(F)cc3)ccc21`, the RP-LC retention time came out at 623 s.

In turn, `CCc1ccc(OCC(=O)Nc2nnc(C3CC(=O)N(c4ccccc4)C3)o2)cc1` (stereo unspecified) came in with an RP-LC retention time of 799 s.

As to `COc1ccc2c(c1)c(CN1CCC(C(=O)NCCN(C)Cc3ccccc3)CC1)cn2C`, the RP-LC retention time stood at 590 s.

In turn, `O=C(NCCC1=CCCCC1)C1CCN(c2cnc(N3CCOCC3)nc2)CC1` yielded an RP-LC retention time of 772 s.

Take `O=C(O)c1cnc(N2CCSCC2)nc1-c1ccccc1`: the RP-LC retention time is 866 s.

With `CCn1cc(NC(=O)Nc2nc(C)cs2)c2ccccc21`, the RP-LC retention time is 792 s.

As to `COc1ccccc1NC(=O)C1CCCN1S(=O)(=O)c1cc2c(cc1Cl)NC(=O)CO2` (stereo unspecified), the RP-LC retention time was 805 s.

In turn, `O=C(C1CCN(c2ncnc3c2sc2ncccc23)CC1)N1CCN(c2ccccn2)CC1` registered an RP-LC retention time of 586 s.

For the molecule `CCC(=O)NC(c1ccc(N(C)C)cc1)c1ccc2cccnc2c1O` (stereo unspecified), the RP-LC retention time came to 620 s.

On to `O=C(Cn1cccn1)NC1CCc2nnc(C3CC3)n2CC1` (stereo unspecified), for which the RP-LC retention time was 543 s.

Regarding `Oc1ccc2c3c1O[C@H]1[C@@H](O)CC[C@@]4(O)C(C2)N(CC2CCC2)CCC314` (stereo partly specified), the RP-LC retention time was 635 s.

Take `O=C(c1ccc2ccnc(N3CCN(c4ccc(Cl)cc4)CC3)c2c1)N1CCC2(CC1)OCCO2`: the RP-LC retention time came to 791 s.

Molecule `CCN(Cc1ccccc1)C(=O)Cn1cccc1-c1nnc(-c2ccccc2)o1` gave an RP-LC retention time of 1050 s.

Molecule `CCn1cc(C(=O)N2CCc3ccccc32)c2nn(-c3ccccc3)c(=O)c-2c1` came in with an RP-LC retention time of 803 s.

As to `Cc1cccc(C(=O)N2N=C(c3ccco3)CC2c2cccs2)c1` (stereo unspecified), the RP-LC retention time was 940 s.

The molecule `O=C(CCc1ccc2nc(-c3ccccc3)[nH]c2c1)N1CCC(N2CCCCC2)CC1` returned an RP-LC retention time of 559 s.

`CCCCS(=O)(=O)c1cc2c(cc1NC(=O)c1cccc(F)c1)n(C)c(=O)n2C` gave an RP-LC retention time of 966 s.

`COc1ccc(C2Cn3cnc(C(=O)N4CCC(C(=O)NCCC5=CCCCC5)CC4)c3CO2)cc1` (stereo unspecified): the RP-LC retention time is 831 s.

`CN(C)C(=O)c1ccc2c(c1)N(CC(=O)Nc1ccccc1Cl)C(=O)CS2` yielded an RP-LC retention time of 705 s.

As for `COCc1ncc(C)n1CC1CCN(S(=O)(=O)c2cccc3nsnc23)CC1`, the RP-LC retention time stood at 641 s.

Consider `CCOC(=O)Cn1c(=O)c2cnc(-c3ccc(Cl)cc3)nc2n(C)c1=O`, for which the RP-LC retention time was determined as 1130 s.

Molecule `Cn1cc(-c2cc3n(n2)CCC(=O)N3CCCC(=O)NC2CCCCC2)c2ccccc21` gave an RP-LC retention time of 847 s.

Regarding `Cc1nn2c(CNS(=O)(=O)c3c(C)noc3C)c(C)nc2s1`, the RP-LC retention time stood at 640 s.

On to `Fc1cccc(Cl)c1C1SCc2nc3ccccc3n21` (stereo unspecified), for which the RP-LC retention time came to 845 s.

With `COCCn1cc2c3c(cccc31)CN(C(=O)Nc1ccc(OC)cc1)CC2`, the RP-LC retention time was 833 s.

In the case of `O=C(C1=NN(Cc2cccc(F)c2)c2ccc(Cl)cc2S1(=O)=O)N1CCOCC1`, the RP-LC retention time was found to be 875 s.

`CCc1ccccc1NC(=O)Cn1c(=O)c(CCC(=O)NCC(C)C)nc2ccccc21` had an RP-LC retention time of 854 s.

Molecule `CCCn1cc(S(=O)(=O)NCc2ccccc2C)c2cccnc21` showed an RP-LC retention time of 946 s.

`Cc1cccc(C(=O)NCc2nn(C)c3ccccc23)c1` returned an RP-LC retention time of 814 s.

Consider `COc1cccc(NC(=O)C2CCN(S(=O)(=O)c3cc(-c4noc(C)n4)cs3)CC2)c1`, for which the RP-LC retention time amounted to 883 s.

`Cc1cccc(CN2C(=O)CN(S(C)(=O)=O)CC2(C)C(=O)NCc2ccc(Cl)cc2)c1` (stereo unspecified) registered an RP-LC retention time of 886 s.

The molecule `CCNC(=O)NC1CCN(c2ccccc2)C1=O` (stereo unspecified) registered an RP-LC retention time of 596 s.

Molecule `COc1ccccc1OCc1nc(-c2ccc3ncn(C)c3c2)no1` registered an RP-LC retention time of 693 s.

Molecule `Cc1oc(-c2[nH]ncc2C(=O)N2CCCC2)cc1S(=O)(=O)N1CCOCC1` gave an RP-LC retention time of 619 s.

`Cc1ccc(NC(=O)Cn2cnc3nc(N4CCCC(C(=O)NC(C)C)C4)sc3c2=O)c(C)c1` (stereo unspecified): the RP-LC retention time stood at 710 s.

In turn, `O=C(CC1CCN(C(=O)NCc2ccccc2)CC1)N1CCCCC1` came in with an RP-LC retention time of 703 s.

For `COc1ccc(NC(=O)N2CCC3(CC2)NC(=O)c2ccc(F)cc2N3C)cc1`, the RP-LC retention time is 727 s.

In the case of `Cc1cc2oc(C(=O)NCC(c3cccs3)N(C)C)cc(=O)c2cc1Cl` (stereo unspecified), the RP-LC retention time was 652 s.

Molecule `Cc1nnc(N2CCCC(C(=O)NCCc3cccs3)C2)c2nn(-c3ccccc3)c(C)c12` (stereo unspecified) showed an RP-LC retention time of 720 s.

In the case of `COc1ccc(NC(=O)C2CCCN(c3nnc4c(Cl)cccn34)C2)cc1OC` (stereo unspecified), the RP-LC retention time is 667 s.

The molecule `O=C(Cn1cnc2c(sc3nc(-c4ccccc4)ccc32)c1=O)Nc1ccc2c(c1)OCCO2` came in with an RP-LC retention time of 948 s.

Turning to `CCn1ccc(C(=O)N2CC(c3nc(CCOCC4CC4)no3)C2)n1`, the RP-LC retention time was 725 s.

Molecule `Cc1ccc(NC(=O)C2CCCN(S(=O)(=O)c3cc(-c4noc(C)n4)cs3)C2)c(Cl)c1` (stereo unspecified) came in with an RP-LC retention time of 1060 s.

The molecule `Cc1noc(C)c1CNC(=O)NC1CCCCC1` yielded an RP-LC retention time of 706 s.

In turn, `Cc1ccc(S(=O)(=O)CCc2noc(C(=O)NCCc3ccc(S(N)(=O)=O)cc3)n2)cc1` displayed an RP-LC retention time of 724 s.

The molecule `Cc1cccc(OCCc2noc(C3CN(S(=O)(=O)N(C)C)C3)n2)c1` yielded an RP-LC retention time of 950 s.

`COC(=O)c1cc2c(=O)n(Cc3ccco3)ccc2nc1C` yielded an RP-LC retention time of 747 s.

Turning to `COc1ccc2c(c1)C1(CCN(C(=O)COc3ccccc3)C1)C(=O)N2C` (stereo unspecified), the RP-LC retention time was found to be 791 s.

`Cc1nc2c(C)cccn2c(=O)c1NC(=O)COc1ccc(Cl)cc1Cl` had an RP-LC retention time of 838 s.

In turn, `Cc1nc2cc(-c3noc(CNC(=O)Cc4ccc(Cl)cc4)n3)ccc2n(C2CCCC2)c1=O` showed an RP-LC retention time of 1020 s.

For the molecule `O=C(NCCC1=CCCCC1)c1cnc(-c2ccccc2)nc1-c1ccncc1`, the RP-LC retention time was 966 s.

With `COc1cc(Br)c(C2C(C(=O)N3CCOCC3)=C(C)NC3=C2C(=O)CCC3)cc1OC` (stereo unspecified), the RP-LC retention time is 618 s.

For the molecule `COc1ccc(-c2cc3c4nnc(SCC(=O)Nc5cccc(Br)c5)n4ccn3n2)cc1`, the RP-LC retention time came out at 1320 s.

`CCNC(=O)C1CCN(c2cnn(Cc3ccccc3)c(=O)c2)CC1`: the RP-LC retention time is 674 s.

The molecule `O=C(NCC1CCOCC1)Nc1ccc(Cl)cc1` had an RP-LC retention time of 705 s.

Regarding `CN(C)[C@@H]1CN(C(=O)c2cc3cc(Cl)ccc3[nH]2)C[C@H]1CO`, the RP-LC retention time came to 622 s.

`Cc1ccc(NC(=O)N2CCCC(CC(=O)N3CCC(Cc4ccccc4)CC3)C2)cc1` (stereo unspecified) had an RP-LC retention time of 1120 s.

`CN(C)C(=O)c1cc2c(s1)CCC(C(=O)Nc1ccccc1)C2` (stereo unspecified): the RP-LC retention time was 772 s.

In the case of `CC1CCN(c2nc(=O)n(CC(=O)Nc3ccc(C(C)C)cc3)c3ccccc23)CC1`, the RP-LC retention time was 981 s.

For `CCCn1cnc2c(-c3ccccc3)csc2c1=O`, the RP-LC retention time was determined as 922 s.

In the case of `Cc1cc(C)n2nc(SCC(=O)NCCC(C)C)nc2n1`, the RP-LC retention time amounted to 690 s.

For the molecule `CC1(C)c2ccccc2-c2nc3ccccc3cc2C1O` (stereo unspecified), the RP-LC retention time is 890 s.

For the molecule `Cc1noc(C)c1Cc1ccc(C(=O)NCC23CCC=C2N(C)C(=O)CC3)o1` (stereo unspecified), the RP-LC retention time stood at 727 s.

`CCCCCCN1CCN(c2cccc(Cl)c2)CC1` returned an RP-LC retention time of 737 s.
